The text below walks through data of patent US6486190B1, “5-(2-imidazolinylamino)-benzimidazole derivatives, their preparation and their use as α-adrenoceptor agonists with improved metabolic stability” (The Procter & Gamble Company, priority 1997, dated 2002).

Data set [1] is described as follows: precision cut liver slice assay (metabolic stability, N-methylation). Format: in vitro ADME. Particulars: for metabolic N-methylation (N-methyl metabolites): in these assays: precision cut liver slice assay and pharmacokinetic studies in primates. As to the method: Metabolic stability of the compounds described above is evaluated in vitro in a precision cut liver slice assay and in vivo in pharmacokinetic studies in primates. The precision cut liver slice assay is a well recognized, validated in vitro model to study xenobiotic metabolism in animal species and humans. (See Ekins, S. “Past, present, and future applications of precision-cut liver slices for in vitro xenobiotic metabolism.” (Department of Medicine and Therapeutics, University of Aberdeen, UK.) Drug-Metab-Rev. (November, 1996) Vol. 28, No. 4: pp. 591-623). […] The assay provides data on the biotransformations taking place within intact hepatocytes of the species of interest. Thus the full compliment of phase I and phase II metabolic enzymes are available to metabolize the drug as is the case in vivo.

Data set [2] can be described thus: pharmacokinetic studies in primates: parent and N-methyl metabolite in urine after oral dosing. Format: in vivo, cynomolgus monkeys. How it is done: For the pharmacokinetic studies, the compounds are administered orally to cynomolgus monkeys and measurements of administered benzimidazole compounds and corresponding N-methyl metabolites are made using 100 μL aliquots of urine collected over various time-periods post-dose. Typically, a chemical homolog or stable-isotope-labeled internal standard is added to each sample and then diluted 100× in water. Ten μL of prepared sample is then analyzed by gradient HPLC, with tandem mass spectrometry detection. Single ion reaction monitoring schemes are employed to selectively detect the test compound, its N-methyl metabolite (if present), and the internal standard.

Data set [3] deals with alpha-2 adrenoceptors. In words: alpha-2 adrenergic activity and selectivity (receptor binding affinities and in vitro functional potencies). Format: biochemical. As to the method: (§1) The pharmacological activity and selectivity of these compounds can be determined using published test procedures. […] (See, e.g., The Alpha-2 Adrenergic Receptors, L. E. Limbird, ed., Humana Press, Clifton, N.J.) The following in vivo assays are typically conducted in rodents or other species. Central nervous system activity is determined by measuring locomotor activity as an index of sedation. (See, e.g., Spyraki, C. & H. Fibiger, “Clonidine-induced Sedation in Rats: Evidence for Mediation by Postsynaptic Alpha-2 Adrenoreceptors”, Journal of Neural Transmission, Vol. 54 (1982), pp. 153-163). Nasal decongestant activity is measured using rhinomanometry as an estimate of nasal airway resistance. […] Antiglaucoma activity is determined by measuring intraocular pressure. […] Antidiarrheal activity is determined by measuring the ability of the compounds to inhibit prostaglandin-induced diarrhea. […] Efficacy in treating irritable bowel syndrome is determined by measuring the ability of compounds to reduce the stress-induced increase in fecal output. […] Antiasthma activity is determined by measuring the effect of the compound on bronchoconstriction associated with pulmonary challenges such as inhaled antigens. […] Activity in cough is determined by measuring the number and latency of the cough response to respiratory challenges such as inhaled citric acid. […]

Data set [4] deals with central nervous system. The data set is described as follows: central nervous system activity (locomotor activity as an index of sedation). Further details: species or system rodents. The following applies: in vivo. How it is done: as §1

Read-outs that look alike come from different tables or passages of the source.

For `CCc1c(NC2=NCCN2)ccc2[nH]cnc12` [4-ethyl-5-(2-imidazolinylamino)benzimidazole], the “metabolic N-methylation (N-methyl metabolites)” value in data set [1] is reported as “N-methyl metabolites were found”. The N-methylation in primates result in data set [2] was “rapidly and extensively N-methylated”. For the same molecule, the “alpha-2 adrenergic activity (pharmacological profile)” value in data set [3] is on record as “selective alpha-2 adrenergic agonist”.
On to `Cc1c(NC2=NCCN2)ccc2[nH]cnc12` [5-(2-Imidazolinylamino)-4-methylbenzimidazole], for which the “metabolic N-methylation (N-methyl metabolites)” value in data set [1] was “N-methyl metabolites were found”. Besides, the “metabolism / methyl metabolite formation” value in data set [1] (precision cut liver slice assay) is listed as “rapidly metabolized”. The CNS activity entry in data set [4] is listed as “very low CNS activity”. For the same molecule, the “alpha-2 adrenergic activity (pharmacological profile)” value in data set [3] is “very potent and selective alpha-2 adrenergic agonists”.
As to `Cc1c(N=C2NCCN2)cc(C#N)c2[nH]cnc12` [Example 1, 7-Cyano-5-(2-imidazolinylamino)-4-methylbenzimidazole], the “metabolism / methyl metabolite formation” value in data set [1] is on record as “no evidence of the methyl metabolite”. In data set [4], the CNS activity entry was “very low CNS activity”.
